Measurements reported in US20220313640A1 (Concert Pharmaceuticals, Inc., priority 2019, published 2022).
Read-outs that look alike come from different tables or passages of the source. Each block holds one molecule with its values, some of them ahead of it.

Tests used:
[1] = Pharmacokinetics of non-deuterated D-serine in male Sprague-Dawley rats, 300 mg/kg PO; format: in vivo; conditions: rat, mean
Method: (§1) The hippocampus, cortex and plasma were collected and analyzed. Additional blood was collected and were analyzed for the full clinical chemistry profile. Urine was also collected and examined for glucose and total protein. […] The mean plasma, hippocampus, and cortex concentration at 1 hour are 19200 ng/mL, 674 ng/g, and 754 ng/g; respectively. The mean plasma, hippocampus, and cortex concentrations at 8 hours were 11250 ng/mL, 17725 ng/g, and 11875 ng/g, respectively. […] Blood urea nitrogen and creatinine levels were elevated.

[2] = Nephrotoxicity of non-deuterated D-serine at 300 mg/kg in male Sprague-Dawley rats (clinical chemistry, urine); format: in vivo; conditions: 300 mg/kg PO
Method: as §1

[3] = Pharmacokinetic profile of Compound 100 versus non-deuterated D-serine in male Sprague-Dawley rats, 150 mg/kg PO; format: in vivo; conditions: fasted, plasma, mean
Description: (§2) The pharmacokinetic profile of Compound 100 was investigated in male Sprague-Dawley rats compared with that of non-deuterated D-serine. […] Plasma was collected and analyzed for Compound 100 and non-deuterated D-Serine. Additional blood was collected and analyzed for the full clinical chemistry profile.

[4] = Nephrotoxicity of Compound 100 and non-deuterated D-serine in male Sprague-Dawley rats, 150 mg/kg PO (BUN, creatinine, GGT); format: in vivo
Description: as §2

[5] = Nephrotoxicity comparison of Compound 100 and non-deuterated D-serine at doses from 150 mg/kg to 750 mg/kg; format: in vivo, rats; conditions: for changes in BUN or creatinine: doses from 150 mg/kg to 750 mg/kg PO
[6] = Pharmacokinetics dose response of non-deuterated D-serine in male Sprague-Dawley rats, 30-300 mg/kg PO; format: in vivo; conditions: rat, plasma; for Tmax: po
Description: (§3) The pharmacokinetic profile of non-deuterated D-serine was investigated in male Sprague-Dawley rats. […] Plasma was collected and analyzed for the non-deuterated D-serine. Additional blood was collected and analyzed for the full clinical chemistry profile.

[7] = Nephrotoxicity dose response of non-deuterated D-serine in male Sprague-Dawley rats, 30-300 mg/kg PO; format: in vivo; conditions: 24 hr samples at the 150 and 300 mg/kg doses, compared to control and reference values
Description: as §3

[8] = Pharmacokinetics of deuterated and non-deuterated D-serine in male Sprague Dawley rats, PO 10 mg/kg; format: in vivo; conditions: rat, 0.5% Methylcellulose, plasma
Method: Three rats were used for each group. Blood was collected at the following time points: for IV dosing: pre-dose, 0.05, 0.167, 0.5, 1, 2, 4, 6, 8 and 12 hours post-dose; for PO dosing: pre-dose, 0.25, 0.5, 1, 2, 4, 6, 8 and 12 hours post-dose PO. Urine was collected at pre-dose (minimum 12 hours), 0-6, 6-12 and 12-24 hours. Plasma samples were analyzed and quantified for dosed compound LC-MS/MS.

[9] = biological target: T1, human NMDAR subunits GluN1 and GluN2A (Homo sapiens, UniProt Q05586); experiment: NMDA receptor activation in automated patch clamp system (ScreenPatch), HEK293 cells; format: cell-based; conditions: 0.003 to 10 μM, Compound 100 versus D-serine
T1 construct: expressed in transfected cells; host or cells: HEK293
Method: Peak current and steady state current were measured. The activity at the NMDA receptor was indistinguishable for the two compounds.

[10] = Randomized single dose crossover plasma PK of Compound 100 versus D-serine in healthy volunteers; format: in vivo, human; conditions: for Tmax / AUC(0-inf) / Cmax / half-life: human, plasma; for Tmax / AUC(0-inf) / Cmax / half-life / CL/F: single 0.25 g oral solution, fasted, N = 11; for AUC(0-inf) / Cmax / half-life / CL/F: mean
Method: Thirteen healthy volunteers between the ages of 18 to 55 were enrolled in the study. […] Period 1 dosing occurred within 14 days of screening. […] Similarly, in Period 2, the 2 subjects in the sentinel group received the alternate treatment after a 4-day washout and approximately 2 days prior to the remaining subjects receiving their Period 2 dose. […] Water consumption was restricted from 1 hour prior to dosing until 1 hour after dosing. Subjects fasted for approximately 3 hours after dosing and remained upright or semi-supine during this period. A meal was provided 3-4 hours after the dose. Meal times and contents were standardized until the last blood sample was collected for PK assessments. […] Plasma samples were stored in labeled tubes at approximately -80° C.

[11] = Pharmacokinetic profile of Compound 100 in male Sprague-Dawley rats: plasma, hippocampus and cortex concentration after 30 mg/kg PO; format: in vivo; conditions: fasted, 1 hr post dose, mean
Method: The mean plasma, hippocampus, and cortex concentrations at 1 hour were 19200 ng/mL, 674 ng/g, and 754 ng/g, respectively. The mean plasma, hippocampus, and cortex concentrations at 6 hours were 1780 ng/mL, 1385 ng/g, and 936 ng/g, respectively.

[12] = Safety and tolerability in single dose crossover study in healthy volunteers; format: in vivo, human; conditions: single 0.25 g oral dose
Description: Thirteen healthy volunteers between the ages of 18 to 55 were enrolled in the study.
Period 1 dosing occurred within 14 days of screening.

[13] = Single Ascending Dose (SAD) study plasma PK in healthy volunteers; format: in vivo, human; conditions: for half-life / AUC(0-inf) / Cmax / Tmax: human, plasma; for Tmax: median
Method: (§4) The 0.5, 2, 3, and 4 g doses were evaluated under fasted conditions (after an overnight fast) while the 1 g dose was evaluated under both fasted and fed conditions (within 30 minutes of consumption of a meal) in a crossover design. […] Blood samples for PK analysis were obtained at several time points after dose administration. Safety assessments included monitoring of adverse events and clinical laboratory testing including monitoring of kidney function.

[14] = Multiple Ascending Dose (MAD) study plasma PK, 7 consecutive days; conditions: for AUC(0-inf) / AUC(0-t) / Cmax / Tmax: human, plasma, po
Description: The caloric content of the meal was in accordance with the FDA guidance for food-effect studies.

[15] = Safety and tolerability in SAD and MAD studies; format: in vivo, human
Method: as §4, with “function. Neurocognitive effects of CTP-692 using CogScreen® were also explored.” for “function.”

[16] = dose escalation 150 mg/kg to 750 mg/kg
[17] = 150 mg/kg PO, fasted, mean (CV %)
[18] = po, 0.5 g, 0.5 g single oral dose, fasted, arithmetic mean
[19] = po, 1 g, 1 g (fed) single oral dose, arithmetic mean
[20] = po, 1 g, 1 g single oral dose, fasted, arithmetic mean
[21] = po, 2 g, 2 g single oral dose, fasted, arithmetic mean
[22] = po, 3 g, 3 g single oral dose, fasted, arithmetic mean
[23] = po, 4 g, 4 g single oral dose, fasted, arithmetic mean

concentration at 8 h ([1]; cortex, endogenous level not subtracted, read-out: Cortex concentration): 11900 ng/g | Tmax ([1]; fasted, plasma): 0.5 h | AUC(0-inf) ([1]; fasted, plasma, endogenous level subtracted): 500 µg·h/mL | concentration at 8 h ([1]; hippocampus, endogenous level not subtracted, read-out: Hippocampus concentration): 17700 ng/g | concentration at 8 h ([1]; plasma, endogenous level subtracted, read-out: Plasma concentration): 11200 ng/mL | AUC(0-inf) ([3]; male, Sprague-Dawley, rat): 349 µg·h/mL | Cmax ([3]; male, Sprague-Dawley, rat, read-out: Cmax): 180000 ng/mL | AUC(0-inf) [6, 17]: 349 µg·h/mL | Cmax [6, 17]: 180000 ng/mL | Tmax ([6]; 30 mg/kg, 30 mg/kg PO, fasted, mean): 0.5 h | Tmax ([6]; 75 mg/kg, 75 mg/kg PO, fasted, mean): 0.5 h | Tmax ([6]; 100 mg/kg, 100 mg/kg PO, fasted, mean): 0.5 h | Tmax ([6]; 150 mg/kg, 150 mg/kg PO, fasted, mean): 0.3 h | Tmax ([6]; 300 mg/kg, 300 mg/kg PO, fasted, mean): 0.5 h | Tmax ([6]; 300 mg/kg, all doses 30, 75, 100, 150, and 300 mg/kg PO): 0.3 to 0.5 h | Tmax [8]: 0.417 h | activity at the NMDA receptor (peak current and steady state current) [9]: indistinguishable | Tmax [10]: 1 h | AUC(0-inf) [10]: 32.5 µg·h/mL | Cmax [10]: 4090 ng/mL | half-life [10]: 17.2 h | CL/F [10]: 7.9 L/h
SMILES: NC(CO)C(=O)O (stereo in doubt) [Non-deuterated D-Serine, D-serine]
Blood urea nitrogen level [2]: elevated | creatinine level [2]: elevated | glucose in urine [2]: presence of glucose was observed | levels of biomarkers of nephrotoxicity [4]: caused an increase | blood urea nitrogen (BUN) level ([4]; 8 hr and 24 hr serum samples): Elevated levels | creatinine level ([4]; 24 hr serum samples): Elevated levels | gamma glutamyl transferase (GGT) level ([4]; 24 hr serum samples): Elevated levels | gross signs of nephrotoxicity [5, 16]: only observed in rats receiving non-deuterated D-serine | changes in BUN or creatinine [5]: increasingly elevated levels | creatinine level [7]: Elevated levels | gamma glutamyl transferase (GGT) level [7]: Elevated levels | urea nitrogen level [7]: Elevated levels

Cortex concentration [11]: 754 ng/g | Hippocampus concentration [11]: 674 ng/g | Plasma concentration [11]: 19200 ng/mL | AUCinf [3]: 383 µg·h/mL | Cmax [3]: 186000 ng/mL | Tmax [3]: 0.667 h | activity at the NMDA receptor (peak current and steady state current) [9]: indistinguishable | Tmax [10]: 1.5 h | AUC(0-inf) [10]: 38.7 µg·h/mL | Cmax [10]: 4550 ng/mL | half-life [10]: 18.3 h | plasma exposure compared to D-serine ([10]; single 0.25 g oral dose): increased plasma exposure | CL/F [10]: 6.6 L/h | CL/F ([13]; 0.5 g single oral dose, fasted, arithmetic mean): 6.17 L/h | CL/F ([13]; 1 g (fed) single oral dose, arithmetic mean): 5.99 L/h | CL/F ([13]; 1 g single oral dose, fasted, arithmetic mean): 6.28 L/h | CL/F ([13]; 2 g single oral dose, fasted, arithmetic mean): 6.56 L/h | CL/F ([13]; 3 g single oral dose, fasted, arithmetic mean): 6.68 L/h | CL/F ([13]; 4 g single oral dose, fasted, arithmetic mean): 6.69 L/h | half-life ([13]; oral, SAD and MAD studies, human plasma, read-out: terminal t1/2 (converted)): ~19 h | AUC(0-inf) [13, 18]: 82.2 µg·h/mL | Cmax [13, 18]: 11000 ng/mL | half-life ([13]; po, 0.5 g, 0.5 g single oral dose, fasted, arithmetic mean, read-out: t1/2 (converted)): 15.9 h | Tmax ([13]; po, 0.5 g, 0.5 g single oral dose, fasted): 1 h | AUC(0-inf) [13, 19]: 173 µg·h/mL | Cmax [13, 19]: 15300 ng/mL | half-life ([13]; po, 1 g, 1 g (fed) single oral dose, arithmetic mean, read-out: t1/2 (converted)): 17.9 h | Tmax ([13]; po, 1 g, 1 g (fed) single oral dose): 2 h | AUC(0-inf) [13, 20]: 164 µg·h/mL | Cmax [13, 20]: 22300 ng/mL | half-life ([13]; po, 1 g, 1 g single oral dose, fasted, arithmetic mean, read-out: t1/2 (converted)): 19.2 h | Tmax ([13]; po, 1 g, 1 g single oral dose, fasted): 1 h | AUC(0-inf) [13, 21]: 315 µg·h/mL | Cmax [13, 21]: 46300 ng/mL | half-life ([13]; po, 2 g, 2 g single oral dose, fasted, arithmetic mean, read-out: t1/2 (converted)): 20.2 h | Tmax ([13]; po, 2 g, 2 g single oral dose, fasted): 1 h | AUC(0-inf) [13, 22]: 489 µg·h/mL | Cmax [13, 22]: 69100 ng/mL | half-life ([13]; po, 3 g, 3 g single oral dose, fasted, arithmetic mean, read-out: t1/2 (converted)): 20.6 h | Tmax ([13]; po, 3 g, 3 g single oral dose, fasted): 1 h | AUC(0-inf) [13, 23]: 618 µg·h/mL | Cmax [13, 23]: 96500 ng/mL | half-life ([13]; po, 4 g, 4 g single oral dose, fasted, arithmetic mean, read-out: t1/2 (converted)): 18.4 h | Tmax ([13]; po, 4 g, 4 g single oral dose, fasted): 1 h | Accumulation ([14]; following 7 consecutive days of administration): minimal to modest | dose-exposure relationship ([14]; following single and multiple doses (at Day 7)): linear | AUC(0-inf) ([14]; 1 g): 263 µg·h/mL | AUC(0-t) ([14]; 1 g): 175 µg·h/mL | Cmax ([14]; 1 g): 25300 ng/mL | Tmax ([14]; 1 g): 1.5 h | AUC(0-inf) ([14]; 2 g): 522 µg·h/mL | AUC(0-t) ([14]; 2 g): 333 µg·h/mL | Cmax ([14]; 2 g): 52000 ng/mL | Tmax ([14]; 2 g): 1 h | AUC(0-inf) ([14]; 4 g): 911 µg·h/mL | AUC(0-t) ([14]; 4 g): 539 µg·h/mL | Cmax ([14]; 4 g): 70800 ng/mL | Tmax ([14]; 4 g): 2 h
SMILES: [2H][C@@](N)(CO)C(=O)O [Compound 100, (2R)-2-amino-2-deutero-3-hydroxy-propanoic acid]
levels of biomarkers of nephrotoxicity [4]: did not increase | exposure as measured by AUC and Cmax, compared with non-deuterated D-serine [5, 16]: greater | gross signs of nephrotoxicity [5, 16]: not Compound 100 | changes in BUN or creatinine [5]: minimal changes | adverse events related to Compound 100 [12]: mild headache (1 subject) and fatigue (2 subjects) | serious adverse events [12]: no serious adverse events were reported | tolerability [12]: generally well tolerated | effects on kidney function (serum and urine kidney function parameters) ([15]; SAD and MAD studies): no apparent Compound 100-related effects on kidney function | effects on other clinical laboratory parameters ([15]; SAD and MAD studies): no clinically significant Compound 100-related effects | most common treatment-related adverse event ([15]; SAD and MAD studies): headache | neurocognitive effects (CogScreen) ([15]; SAD and MAD studies, exploratory): no evidence of adverse effects on neurocognitive functioning | tolerability ([15]; SAD and MAD studies, healthy volunteers): well-tolerated | Compound 100-related adverse events ([15]; highest once-daily dose of 4 g, both studies): no Compound 100-related adverse events were reported
